One data set concerns Mus musculus. Briefly: Toxicity in BALB/c nu/nu mouse xenografted with human HCT116 cells assessed as spleen index at 5 mg/kg, iv administered every other day for 14 days measured 24 hrs post last dose (reference value: 0.41 +/- 0.08%). It is filed as organism-based. Particulars: in vivo.
The test system of data set [1] is HCT-116. The data set is described as follows: Antitumor activity against human HCT116 cells xenografted in BALB/c nu/nu mouse assessed as tumor growth inhibition at 5 mg/kg, iv administered every other day for 14 days measured 24 hrs post last dose relative to control. Particulars: HCT-116, iv, read-out: TGI. The data set is classed as functional.
Another data set concerns NCI-H1975. The data set is described as follows: Antiproliferative activity against human NCI-H1975 cells assessed as inhibition of cell growth after 72 hrs by sulforhodamine B assay. The data set is classed as functional, cell-based. As to conditions: NCI-H1975, 72 h.
A further data set deals with K562. Briefly: Antiproliferative activity against human K562 cells assessed as inhibition of cell growth after 72 hrs by MTT assay. It is filed as functional, cell-based. As to conditions: K562, 72 h.
A further data set deals with HL-60. The data set is described as follows: Antiproliferative activity against human HL60 cells assessed as inhibition of cell growth after 72 hrs by MTT assay. It is filed as functional, cell-based. Particulars: HL-60, 72 h.
The subject of the next data set is SW480. Briefly: Antiproliferative activity against human SW480 cells assessed as inhibition of cell growth after 72 hrs by sulforhodamine B assay. The data set is classed as functional, cell-based. As to conditions: SW480, 72 h.
In a further data set the test system is MCF7. Briefly: Antiproliferative activity against human MCF7 cells assessed as inhibition of cell growth after 72 hrs by sulforhodamine B assay. The data set is classed as functional, cell-based. As to conditions: MCF7, 72 h.
A further data set relates to L929. The data set is described as follows: Cytotoxicity against mouse L929 cells assessed as inhibition of cell growth after 72 hrs by MTT assay. It is filed as cell-based. Particulars: L929, 72 h.
Another data set deals with PC-3. Briefly: Antiproliferative activity against human PC3 cells assessed as inhibition of cell growth after 72 hrs by sulforhodamine B assay. As to conditions: PC-3, 72 h. It is filed as functional, cell-based.
In the next data set the test system is LS180. The data set is described as follows: Antiproliferative activity against human LS180 cells assessed as inhibition of cell growth after 72 hrs by sulforhodamine B assay. The data set is classed as functional, cell-based. Particulars: LS180, 72 h.
The test system of another data set is HeLa. The data set is described as follows: Antiproliferative activity against human HeLa cells assessed as inhibition of cell growth after 72 hrs by sulforhodamine B assay. The data set is classed as functional, cell-based.
For the next data set, the system named is PANC-1. The data set is described as follows: Antiproliferative activity against human PANC1 cells assessed as inhibition of cell growth after 72 hrs by sulforhodamine B assay. The data set is classed as functional, cell-based. Particulars: PANC-1, 72 h.
A further data set concerns HepG2. The data set is described as follows: Antiproliferative activity against human HepG2 cells assessed as inhibition of cell growth after 72 hrs by sulforhodamine B assay. As to conditions: HepG2, 72 h. It is filed as functional, cell-based.
Data set [2] deals with HCT-116. Briefly: Antiproliferative activity against human HCT116 cells assessed as inhibition of cell growth after 72 hrs by sulforhodamine B assay. The data set is classed as functional, cell-based. As to conditions: HCT-116, 72 h.
A further data set deals with A549. The data set is described as follows: Antiproliferative activity against human A549 cells assessed as inhibition of cell growth after 72 hrs by sulforhodamine B assay. The data set is classed as functional, cell-based. Particulars: A549, 72 h.
The subject of the next data set is HT-29. The data set is described as follows: Antiproliferative activity against human HT-29 cells assessed as inhibition of cell growth after 72 hrs by sulforhodamine B assay. The data set is classed as functional, cell-based. Particulars: HT-29, 72 h.
Another data set has as its system BXPC-3. Briefly: Antiproliferative activity against human BxPC3 cells assessed as inhibition of cell growth after 72 hrs by sulforhodamine B assay. The data set is classed as functional, cell-based. As to conditions: BXPC-3, 72 h.
The test system of data set [3] is HCT-116. Briefly: Down regulation of Raf1 expression in human HCT116 cells after 48 hrs by Western blot analysis. The data set is classed as functional, cell-based.
Data set [4] relates to HCT-116. Briefly: Down regulation of phosphorylated STAT3 expression in human HCT116 cells after 48 hrs by Western blot analysis. It is filed as functional, cell-based.
The test system of data set [5] is HCT-116. Briefly: Down regulation of ERK1/2 expression in human HCT116 cells after 48 hrs by Western blot analysis. It is filed as functional, cell-based.
Data set [6] deals with HCT-116. Briefly: Down regulation of AKT expression in human HCT116 cells after 48 hrs by Western blot analysis. It is filed as functional, cell-based.
Data set [7] concerns HCT-116. Briefly: Down regulation of HSP90 expression in human HCT116 cells after 48 hrs by Western blot analysis. The data set is classed as functional, cell-based.
Data set [8] concerns HCT-116. The data set is described as follows: Down regulation of survivin expression in human HCT116 cells after 48 hrs by Western blot analysis. It is filed as functional, cell-based.
Data set [9] concerns HCT-116. Briefly: Down regulation of STAT3 expression in human HCT116 cells after 48 hrs by Western blot analysis. The data set is classed as functional, cell-based.
For data set [10], the system named is HCT-116. The data set is described as follows: Down regulation of survivin expression in human HCT116 cells at 12.5 ug/ml after 48 hrs by Western blot analysis. It is filed as functional, cell-based.
Data set [11] deals with HCT-116. The data set is described as follows: Upregulation of p53 expression in human HCT116 cells at 12.5 ug/ml after 48 hrs by Western blot analysis. It is filed as functional, cell-based.

These results are taken from ChEMBL document CHEMBL4265942, “Four new antitumor metabolites isolated from a mutant 3-f-31 strain derived from Penicillium purpurogenum G59” (Eur J Med Chem, 2018).

pIC50: −log10 of the molar value. Activity calls are given as the source filed them. The calls are words filed in the database; no cut-off is given here. A value given as a limit tells only on which side of the number the result lay.

As for `CC(=O)O[C@@]12CO[C@@H]1C[C@H](O)[C@@]1(C)C(=O)[C@H](O)C3=C(C)[C@@H](OC(=O)[C@H](O)[C@@H](NC(=O)OC(C)(C)C)c4ccccc4)C[C@@](O)([C@@H](OC(=O)c4ccccc4)[C@H]21)C3(C)C` [DOCETAXEL ANHYDROUS], the Activity_index with Mus musculus was 0.25. In addition, the inhibition in vivo at 5 mg/kg with HCT-116 [1] turned out to be 87.4%.
With `CCCCCC[C@@H](C)C[C@@H](C)/C=C/C(N)=O`, the pIC50 is 4.27 in the data set with NCI-H1975; 4.20 in the data set with K562; 4.29 in the data set on HL-60; 4.26 with SW480; 4.22 with MCF7; 4.87 in the data set with L929. Also, the negative logarithm of the IC50 (pIC50) in the data set on PC-3 was less than 4.00; in the data set on LS180, 4.19; in the data set on HeLa, 4.11; with PANC-1, 4.08; in the data set on HepG2, 4.11; in the data set on HCT-116 [2], less than 4.00. The results for the pIC50 with A549, with HT-29 and in the data set with BXPC-3 were 4.23, 4.07 and 4.17, respectively.
As to `CCCCCC[C@@H](C)C[C@@H](C)/C=C/C(=O)N[C@H]1C[C@@]2(O[C@@H]1OC)[C@@H]1O[C@@H]1[C@](O)(CC(C)=O)[C@@H]1O[C@@H]12`, the pIC50 in the data set on NCI-H1975 was 5.32; with K562 it was 5.19; in the data set on HL-60, 4.97; in the data set with SW480, 5.41; with MCF7 it was 5.39; in the data set on L929, 5.43. Also, the negative-log IC50 (pIC50) with PC-3 is 5.20; in the data set with LS180, 4.86; in the data set on HeLa, 5.06; in the data set with PANC-1, 5.24; with HepG2, 5.02; in the data set with HCT-116 [2] it was 5.58. The pIC50 was 4.83 with A549, 5.01 in the data set with HT-29 and 4.98 in the data set with BXPC-3.
With `CCCCCC[C@@H](C)C[C@@H](C)/C=C/C(=O)N[C@@H]1C[C@@]2(O[C@@H]1O)[C@@H]1O[C@@H]1[C@](O)(CC(C)=O)[C@@H]1O[C@@H]12`, the pIC50 in the data set with NCI-H1975 was 5.47; in the data set with K562 it was 5.29; in the data set with HL-60 it was 5.50; in the data set with SW480, 5.45; in the data set on MCF7, 5.39; with L929 it was 5.33. For the same compound, the pIC50 in the data set on PC-3 was 5.12; in the data set with LS180, 4.77; with HeLa, 5.20; in the data set on PANC-1, 5.35; in the data set on HepG2 it was 5.18; in the data set with HCT-116 [2], 5.60. For the same compound, the pIC50 is 5.01 in the data set with A549, 4.99 in the data set on HT-29 and 5.14 in the data set with BXPC-3. Moreover, the Activity result with HCT-116 [3], in the data set on HCT-116 [4], in the data set with HCT-116 [5], in the data set with HCT-116 [6], in the data set on HCT-116 [7] and in the data set with HCT-116 [8] was “Dose-dependent effect” each time. The Activity result in the data set on HCT-116 [9] is “Dose-dependent effect”.
`COc1cc([C@@H]2c3cc4c(cc3[C@@H](O[C@@H]3O[C@@H]5CO[C@@H](C)O[C@H]5[C@H](O)[C@H]3O)[C@H]3COC(=O)[C@H]23)OCO4)cc(OC)c1O`: the outcome in the data set with HCT-116 [10] and in the data set with HCT-116 [11] was Active.
